The text below walks through data of US12312359B2 (Vitae Pharmaceuticals, LLC, priority 2016, dated 2025).

In experiment [1] the test system is human acute monocytic leukemia cell line MV-4-11. Nature of the experiment: Assay 2: cell proliferation assay (ATP quantitation, CellTiter-Glo), MV-4-11. The format is cell-based. To be noted: MV-4-11 cells. The procedure: Potencies of inhibitor compounds against cell proliferation was assessed against the human acute monocytic leukemia cell line MV-4-11 (ATCC® CRL-9591™) based on ATP quantitation. MV-4-11 cells or toxicity control HL-60 cells (ATCC® CCL-240™) were incubated in 96-well tissue culture plates (1.67×10^4 cells in 200 μL culture media containing 10% FBS per well) with or without test compound for 72 h at 37° C., 5% CO2. After incubation, each well was mixed by pipetting and 95 μL from each well was transferred to a well in 96-well black OptiPlate® plates (PerkinElmer). An equal volume of CellTiter-Glo® Luminescent Cell Viability Assay reagent (Promega) was added to each well, followed by mixing for 5 min on an orbital plate shaker. Luminescence was measured on a Wallac EnVision 2104 Multilabel Reader (PerkinElmer) to quantitate ATP.

Experiment [2] deals with T1, biotinylated wild-type menin and MLL-AF9 fusion protein (menin/MLL binding) (Homo sapiens, UniProt O00255).
T1 construct: made in house; host or cells: menin: E. coli; MLL-AF9-FLAG: HEK293 cells, used as cleared lysate
T1 sequence (O00255 1-610): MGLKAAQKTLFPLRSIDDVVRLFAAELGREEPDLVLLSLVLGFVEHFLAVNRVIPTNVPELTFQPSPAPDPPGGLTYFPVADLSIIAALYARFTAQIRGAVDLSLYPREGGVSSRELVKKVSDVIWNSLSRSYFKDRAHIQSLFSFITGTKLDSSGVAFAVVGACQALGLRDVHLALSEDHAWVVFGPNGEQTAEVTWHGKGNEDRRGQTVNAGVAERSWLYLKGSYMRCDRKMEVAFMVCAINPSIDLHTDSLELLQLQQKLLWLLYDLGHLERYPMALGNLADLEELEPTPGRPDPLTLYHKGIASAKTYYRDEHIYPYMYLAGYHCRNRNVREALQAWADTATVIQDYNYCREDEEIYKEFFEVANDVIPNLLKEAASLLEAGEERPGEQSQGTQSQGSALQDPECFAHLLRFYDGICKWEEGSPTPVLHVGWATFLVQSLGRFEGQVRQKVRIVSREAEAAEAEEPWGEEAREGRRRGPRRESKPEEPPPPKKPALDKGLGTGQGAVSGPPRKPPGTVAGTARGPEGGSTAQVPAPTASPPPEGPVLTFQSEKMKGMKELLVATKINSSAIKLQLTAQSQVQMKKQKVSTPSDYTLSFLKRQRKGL
Nature of the experiment: Assay 1: menin/MLL binding AlphaLISA assay, wild-type menin. Particulars: Table 30; column head does not say wild-type or mutated menin. The procedure: Potencies of inhibitor compounds against menin/MLL binding were assessed by AlphaLISA assay using biotinylated (1) wild-type menin or (2) mutated menin (described in Huang et al, 2012, Nature, 482, 542-546) and MLL-AF9 fusion protein bearing a FLAG epitope at its C-terminus. Menin proteins were expressed in E. coli and covalently modified with biotin using EZ-Link™ Sulfo-NHS-Biotin (ThermoFisher Cat.No. 21217) according to manufacturer's protocol. MLL1-1,396 fused to AF91-92 and the C-terminal FLAG peptide was expressed in HEK293 cells and used as a lysate cleared at 21,000×g for 10 min.
Compounds (2 μL of solutions in DMSO) were dispensed in white 96-well half-area plates (Corning Cat.No. 3693) and incubated for 30 min at RT with 5 nM biotinylated menin and appropriate amount of MLL-AF9-FLAG lysate in 40 μL of 50 mM Tris-HCl buffer pH 7.4 containing 5% (v/v) DMSO, 50 mM NaCl, 0.01% (w/v) bovine serum albumin (BSA) and 1 mM DTT. To this incubation mixture, 40 μL of AlphaLISA anti-FLAG acceptor (PerkinElmer Cat.No. AL112C) and streptavidin donor (PerkinElmer Cat.No. 6760002) beads (10 μg/mL each) was added and incubation continued at RT for 60 min. Alpha (amplified luminescent proximity homogeneous assay) signal was measured on an Envision multi-label plate reader at the end of the incubation. All steps were conducted under dim fluorescent light.
These percent inhibition values were regressed against compound concentrations in the assay using four parameter logit non-linear curve fitting (XLFit, IDBS). The IC50 values were derived from the curve fitting as inflection points on the dose-response curves and are set out in Table 30 below.
(Alpha assays give light when donor and acceptor beads are brought close together.)

Structures are written as SMILES. Bounds are passed on as bounds.

For the compound `N#Cc1ccc(-c2cc(F)ccc2Oc2cncnc2N2CCC3(CCN(Cc4ccc5[nH]c(=O)[nH]c5c4)C3)C2)c(C2CC2)c1` (racemic) [Example 42, 2-cyclopropyl-5′-fluoro-2′-((4-(7-((2-oxo-2,3-dihydro-1H-benzo[d]imidazol-5-yl)methyl)-2,7-diazaspiro[4.4]nonan-2-yl)pyrimidin-5-yl)oxy)-[1,1′-biphenyl]-4-carbonitrile], in experiment [1] (Homo sapiens, MV4-11, 72 h), the EC50 was below 0.1 µM. In addition, the IC50 in experiment [2] is below 0.1 µM.

Turning to `CC(C)N(C(=O)c1cc(F)ccc1Oc1cncnc1N1CCC2(CCN(Cc3ccc4[nH]c(=O)[nH]c4c3)C2)C1)C(C)C` (single isomer, unassigned) [Example 1A, 5-fluoro-N,N-diisopropyl-2-((4-(7-((2-oxo-2,3-dihydro-1H-benzo[d]imidazol-5-yl)methyl)-2,7-diazaspiro[4.4]nonan-2-yl)pyrimidin-5-yl)oxy)benzamide], in experiment [1] (Homo sapiens, MV4-11, 72 h), the EC50 was below 0.1 µM. Moreover, in experiment [2], the IC50 was below 0.1 µM.

With `CCN(C(=O)c1cc(F)ccc1Oc1cncnc1N1CCC2(CCN(Cc3ccc4[nH]c(=O)[nH]c4c3)C2)C1)C(C)C` (single isomer, unassigned) [Example 2A, N-ethyl-5-fluoro-N-isopropyl-2-((4-(7-((2-oxo-2,3-dihydro-1H-benzo[d]imidazol-5-yl)methyl)-2,7-diazaspiro[4.4]nonan-2-yl)pyrimidin-5-yl)oxy)benzamide], the EC50 in experiment [1] (72 h) was below 0.1 µM. In experiment [2], this compound came in with a concentration for half-maximal inhibition (IC50) below 0.1 µM.

With `CCN(C(=O)c1cc(F)ccc1Oc1cncnc1N1CCC2(CCN(Cc3ccc4[nH]c(=O)[nH]c4c3)C2)C1)C(C)C` (single isomer, unassigned) [Example 2B, N-ethyl-5-fluoro-N-isopropyl-2-((4-(7-((2-oxo-2,3-dihydro-1H-benzo[d]imidazol-5-yl)methyl)-2,7-diazaspiro[4.4]nonan-2-yl)pyrimidin-5-yl)oxy)benzamide], the EC50 in experiment [1] (Homo sapiens, MV4-11, 72 h) was below 0.1 µM. In experiment [2], the IC50 is below 0.1 µM.

In experiment [1] (Homo sapiens, MV4-11, 72 h), `CC(C)N(C(=O)c1cc(F)ccc1Oc1cncnc1N1CCC2(CCN(Cc3ccc4c(c3)[nH]c(=O)n4CCO)C2)C1)C(C)C` (single isomer, unassigned) [Example 3A, 5-fluoro-2-((4-(7-((1-(2-hydroxyethyl)-2-oxo-2,3-dihydro-1H-benzo[d]imidazol-5-yl)methyl)-2,7-diazaspiro[4.4]nonan-2-yl)pyrimidin-5-yl)oxy)-N,N-diisopropylbenzamide] had an EC50 below 0.1 µM. The compound also returned an IC50 in experiment [2] below 0.1 µM.

Take `CC(C)N(C(=O)c1cc(F)ccc1Oc1cncnc1N1CCC2(CCN(Cc3ccc4c(c3)[nH]c(=O)n4CCO)C2)C1)C(C)C` (single isomer, unassigned) [Example 3B, 5-fluoro-2-((4-(7-((1-(2-hydroxyethyl)-2-oxo-2,3-dihydro-1H-benzo[d]imidazol-5-yl)methyl)-2,7-diazaspiro[4.4]nonan-2-yl)pyrimidin-5-yl)oxy)-N,N-diisopropylbenzamide]: the EC50 in experiment [1] (72 h) was below 0.1 µM. The IC50 in experiment [2] is below 0.1 µM.

In experiment [1] (Homo sapiens, MV4-11, 72 h), `CCN(C(=O)c1cc(F)ccc1Oc1cncnc1N1CCC2(CCN(Cc3ccc4c(c3)[nH]c(=O)n4CCO)C2)C1)C(C)C` (single isomer, unassigned) [Example 4A, N-ethyl-5-fluoro-2-((4-(7-((1-(2-hydroxyethyl)-2-oxo-2,3-dihydro-1H-benzo[d]imidazol-5-yl)methyl)-2,7-diazaspiro[4.4]nonan-2-yl)pyrimidin-5-yl)oxy)-N-isopropylbenzamide] had an EC50 below 0.1 µM. The IC50 in experiment [2] was below 0.1 µM.

`CC(C)N(C(=O)c1cc(F)ccc1Oc1cncnc1N1CCC2(CCC(N)(Cc3ccc(C#N)cc3)C2)C1)C(C)C` (single isomer, unassigned) [Example 22A, 2-((4-(7-amino-7-(4-cyanobenzyl)-2-azaspiro[4.4]nonan-2-yl)pyrimidin-5-yl)oxy)-5-fluoro-N,N-diisopropylbenzamide] showed an EC50 in experiment [1] (Homo sapiens, MV4-11, 72 h) of at least 1 µM. In experiment [2], this compound displayed a concentration for half-maximal inhibition (IC50) below 0.1 µM.

In the case of `CC(C)N(C(=O)c1cc(F)ccc1Oc1cncnc1N1CCC2(CC(O)C(Cc3ccc4[nH]c(=O)[nH]c4c3)C2)C1)C(C)C` (single isomer, unassigned) [Example 23A, 5-fluoro-2-((4-(7-hydroxy-8-((2-oxo-2,3-dihydro-1H-benzo[d]imidazol-5-yl)methyl)-2-azaspiro[4.4]nonan-2-yl)pyrimidin-5-yl)oxy)-N,N-diisopropylbenzamide], the EC50 in experiment [1] (72 h) was 0.1 to 1 µM. In experiment [2], this compound showed an IC50 below 0.1 µM.

As to `CC(C)N(C(=O)c1cc(F)ccc1Oc1cncnc1N1CCC2(CC(O)C(Cc3ccc4[nH]c(=O)[nH]c4c3)C2)C1)C(C)C` (single isomer, unassigned) [Example 23C, 5-fluoro-2-((4-(7-hydroxy-8-((2-oxo-2,3-dihydro-1H-benzo[d]imidazol-5-yl)methyl)-2-azaspiro[4.4]nonan-2-yl)pyrimidin-5-yl)oxy)-N,N-diisopropylbenzamide], the EC50 in experiment [1] (72 h) was at least 1 µM. The compound further displayed an IC50 in experiment [2] below 0.1 µM.

For `CC(C)N(C(=O)c1cc(F)ccc1Oc1cncnc1N1CCC2(CC(N)C(Cc3ccc4[nH]c(=O)[nH]c4c3)C2)C1)C(C)C` (single isomer, unassigned) [Example 24A, 2-((4-(7-amino-8-((2-oxo-2,3-dihydro-1H-benzo[d]imidazol-5-yl)methyl)-2-azaspiro[4.4]nonan-2-yl)pyrimidin-5-yl)oxy)-5-fluoro-N,N-diisopropylbenzamide], the EC50 in experiment [1] (Homo sapiens, MV4-11, 72 h) was at least 1 µM. For the same compound, in experiment [2], the IC50 is below 0.1 µM.

In experiment [1] (72 h), `CC(C)N(C(=O)c1cc(F)ccc1Oc1cncnc1N1CCC2(CC(N)C(Cc3ccc4[nH]c(=O)[nH]c4c3)C2)C1)C(C)C` (single isomer, unassigned) [Example 24B, 2-((4-(7-amino-8-((2-oxo-2,3-dihydro-1H-benzo[d]imidazol-5-yl)methyl)-2-azaspiro[4.4]nonan-2-yl)pyrimidin-5-yl)oxy)-5-fluoro-N,N-diisopropylbenzamide] registered an EC50 of at least 1 µM. The compound also displayed an IC50 in experiment [2] below 0.1 µM.

In experiment [1] (72 h), `CC(C)N(C(=O)c1cc(F)ccc1Oc1cncnc1N1CCC2(CC(N)C(Cc3ccc4[nH]c(=O)[nH]c4c3)C2)C1)C(C)C` (single isomer, unassigned) [Example 25, 2-((4-(7-amino-8-((2-oxo-2,3-dihydro-1H-benzo[d]imidazol-5-yl)methyl)-2-azaspiro[4.4]nonan-2-yl)pyrimidin-5-yl)oxy)-5-fluoro-N,N-diisopropylbenzamide] displayed an EC50 of at least 1 µM. Besides, the IC50 in experiment [2] is below 0.1 µM.

In experiment [1] (72 h), `CC(C)N(C(=O)c1cc(F)ccc1Oc1cncnc1N1CCC2(CC(Cc3ccc(F)cc3)N(CCO)C2)C1)C(C)C` (single isomer, unassigned) [Example 26A, 5-fluoro-2-((4-(8-(4-fluorobenzyl)-7-(2-hydroxyethyl)-2,7-diazaspiro[4.4]nonan-2-yl)pyrimidin-5-yl)oxy)-N,N-diisopropylbenzamide] registered an EC50 of 0.1 to 1 µM. This compound had an IC50 in experiment [2] below 0.1 µM.

Turning to `CC(C)N(C(=O)c1cc(F)ccc1Oc1cncnc1N1CCC2(CC(Cc3ccc(F)cc3)N(CCO)C2)C1)C(C)C` (single isomer, unassigned) [Example 26B, 5-fluoro-2-((4-(8-(4-fluorobenzyl)-7-(2-hydroxyethyl)-2,7-diazaspiro[4.4]nonan-2-yl)pyrimidin-5-yl)oxy)-N,N-diisopropylbenzamide], the EC50 in experiment [1] (72 h) was at least 1 µM. In experiment [2], the IC50 was below 0.1 µM.

For orientation: EC50 means the concentration that produces a half-maximal response. A low value points to an effect from little substance. Usually IC50 stands for the point on the concentration scale where inhibition reaches its midpoint. Low values mean higher potency, high ones lower potency.
